Test results reported in PubChem BioAssay AID1259407 (Chemical Carcinogenesis Research Information System (CCRIS), 2018).
The source made the active and inactive calls. The rule behind the calls is not given here.

System: CCRIS mutagenicity, Ames/micronucleus/aberration tests
Experiment: CCRIS mutagenicity studies
[1] = Test System: AMES SALMONELLA TYPHIMURIUM, Strain/Indicator: TA100, Metabolic Activation: NONE, Method: PREINCUBATION
[2] = Test System: AMES SALMONELLA TYPHIMURIUM, Strain/Indicator: TA100, Metabolic Activation: NONE, Method: STANDARD PLATE
[3] = Test System: AMES SALMONELLA TYPHIMURIUM, Strain/Indicator: TA100, Metabolic Activation: RAT, LIVER, S-9, AROCLOR 1254, Method: STANDARD PLATE
[4] = Test System: MOUSE LYMPHOMA, Strain/Indicator: L5178Y (TK+/TK-), Metabolic Activation: NONE, Method: SUSPENSION/PLATE
[5] = Test System: AMES SALMONELLA TYPHIMURIUM, Strain/Indicator: TA98, Metabolic Activation: NONE, Method: PREINCUBATION
[6] = Test System: AMES SALMONELLA TYPHIMURIUM, Strain/Indicator: TA1535, Metabolic Activation: NONE, Method: PREINCUBATION
[7] = Test System: AMES SALMONELLA TYPHIMURIUM, Strain/Indicator: TA1537, Metabolic Activation: NONE, Method: PREINCUBATION

O=C(/C=C/c1ccc([N+](=O)[O-])cc1)c1ccccc1
mutagenic call (Test System: AMES SALMONELLA TYPHIMURIUM, Strain/Indicator: TA98, Metabolic Activation: HAMSTER, LIVER, S-9, AROCLOR 1254, Method: STANDARD PLATE): active; positive
mutagenic call (Test System: AMES SALMONELLA TYPHIMURIUM, Strain/Indicator: TA98, Metabolic Activation: NONE, Method: STANDARD PLATE): inactive; negative
mutagenic call (Test System: AMES SALMONELLA TYPHIMURIUM, Strain/Indicator: TA98, Metabolic Activation: RAT, LIVER, S-9, AROCLOR 1254, Method: STANDARD PLATE): active; positive
mutagenic call (Test System: AMES SALMONELLA TYPHIMURIUM, Strain/Indicator: TA100(1,8-DNP6), Metabolic Activation: NONE, Method: PREINCUBATION): inactive; negative
mutagenic call (Test System: AMES SALMONELLA TYPHIMURIUM, Strain/Indicator: TA100(1,8-DNP6), Metabolic Activation: RAT, LIVER, S-9, AROCLOR 1254, Method: PREINCUBATION): inactive; negative
mutagenic call (Test System: AMES SALMONELLA TYPHIMURIUM, Strain/Indicator: TA100(NR), Metabolic Activation: NONE, Method: PREINCUBATION): inactive; negative
mutagenic call (Test System: AMES SALMONELLA TYPHIMURIUM, Strain/Indicator: TA100(NR), Metabolic Activation: RAT, LIVER, S-9, AROCLOR 1254, Method: PREINCUBATION): inactive; negative
mutagenic call (Test System: AMES SALMONELLA TYPHIMURIUM, Strain/Indicator: TA100, Metabolic Activation: HAMSTER, LIVER, S-9, AROCLOR 1254, Method: STANDARD PLATE): active; positive
mutagenic call [1]: inactive; negative
mutagenic call [2]: inactive; negative
mutagenic call [3]: active; positive
mutagenic call (Test System: AMES SALMONELLA TYPHIMURIUM, Strain/Indicator: TA100, Metabolic Activation: RAT, LIVER, S-9, AROCLOR, Method: PREINCUBATION): active; positive
mutagenic call [4]: inactive; negative. reevaluation of results: negative
mutagenic call (Test System: MOUSE LYMPHOMA, Strain/Indicator: L5178Y (TK+/TK-), Metabolic Activation: RAT, LIVER, S-9, AROCLOR 1254, Method: SUSPENSION/PLATE): inactive; negative. reevaluation of results: negative

CCc1ccccc1
mutagenic call (Test System: AMES SALMONELLA TYPHIMURIUM, Strain/Indicator: TA97, Metabolic Activation: HAMSTER, LIVER, S-9, AROCLOR 1254, Method: PREINCUBATION): inactive; negative
mutagenic call (Test System: AMES SALMONELLA TYPHIMURIUM, Strain/Indicator: TA97, Metabolic Activation: NONE, Method: PREINCUBATION): inactive; negative
mutagenic call (Test System: AMES SALMONELLA TYPHIMURIUM, Strain/Indicator: TA97, Metabolic Activation: RAT, LIVER, S-9, AROCLOR 1254, Method: PREINCUBATION): inactive; negative
mutagenic call (Test System: AMES SALMONELLA TYPHIMURIUM, Strain/Indicator: TA98, Metabolic Activation: HAMSTER LIVER S-9, AROCLOR 1254 (10 OR 30%), Method: PREINCUBATION): inactive; negative
mutagenic call (Test System: AMES SALMONELLA TYPHIMURIUM, Strain/Indicator: TA98, Metabolic Activation: HAMSTER, LIVER, S-9, AROCLOR 1254, Method: PREINCUBATION): inactive; negative
mutagenic call [5]: inactive; negative
mutagenic call (Test System: AMES SALMONELLA TYPHIMURIUM, Strain/Indicator: TA98, Metabolic Activation: RAT LIVER S-9, AROCLOR 1254 (10 OR 30%), Method: PREINCUBATION): inactive; negative
mutagenic call (Test System: AMES SALMONELLA TYPHIMURIUM, Strain/Indicator: TA98, Metabolic Activation: RAT, LIVER, S-9, AROCLOR 1254, Method: PREINCUBATION): inactive; negative
mutagenic call (Test System: AMES SALMONELLA TYPHIMURIUM, Strain/Indicator: TA100, Metabolic Activation: HAMSTER LIVER S-9, AROCLOR 1254 (10 OR 30%), Method: PREINCUBATION): inactive; negative
mutagenic call (Test System: AMES SALMONELLA TYPHIMURIUM, Strain/Indicator: TA100, Metabolic Activation: HAMSTER, LIVER, S-9, AROCLOR 1254, Method: PREINCUBATION): inactive; negative
mutagenic call [1]: inactive; negative
mutagenic call (Test System: AMES SALMONELLA TYPHIMURIUM, Strain/Indicator: TA100, Metabolic Activation: RAT LIVER S-9, AROCLOR 1254 (10 OR 30%), Method: PREINCUBATION): inactive; negative
mutagenic call (Test System: AMES SALMONELLA TYPHIMURIUM, Strain/Indicator: TA100, Metabolic Activation: RAT, LIVER, S-9, AROCLOR 1254, Method: PREINCUBATION): inactive; negative
mutagenic call (Test System: AMES SALMONELLA TYPHIMURIUM, Strain/Indicator: TA1535, Metabolic Activation: HAMSTER LIVER S-9, AROCLOR 1254 (10 OR 30%), Method: PREINCUBATION): inactive; negative
mutagenic call (Test System: AMES SALMONELLA TYPHIMURIUM, Strain/Indicator: TA1535, Metabolic Activation: HAMSTER, LIVER, S-9, AROCLOR 1254, Method: PREINCUBATION): inactive; negative
mutagenic call [6]: inactive; negative
mutagenic call (Test System: AMES SALMONELLA TYPHIMURIUM, Strain/Indicator: TA1535, Metabolic Activation: RAT LIVER S-9, AROCLOR 1254 (10 OR 30%), Method: PREINCUBATION): inactive; negative
mutagenic call (Test System: AMES SALMONELLA TYPHIMURIUM, Strain/Indicator: TA1535, Metabolic Activation: RAT, LIVER, S-9, AROCLOR 1254, Method: PREINCUBATION): inactive; negative
mutagenic call (Test System: AMES SALMONELLA TYPHIMURIUM, Strain/Indicator: TA1537, Metabolic Activation: HAMSTER LIVER S-9, AROCLOR 1254 (10 OR 30%), Method: PREINCUBATION): inactive; negative
mutagenic call [7]: inactive; negative
mutagenic call (Test System: AMES SALMONELLA TYPHIMURIUM, Strain/Indicator: TA1537, Metabolic Activation: RAT LIVER S-9, AROCLOR 1254 (10 OR 30%), Method: PREINCUBATION): inactive; negative
mutagenic call [4]: active; positive

CCCCCCCCCCCCOC[N+](C)(C)Cc1ccccc1
mutagenic call (Test System: BACILLUS SUBTILIS, Strain/Indicator: H17/REC, Metabolic Activation: NONE, Method: STANDARD PLATE): inactive; negative
mutagenic call (Test System: BACILLUS SUBTILIS, Strain/Indicator: M45, Metabolic Activation: NONE, Method: STANDARD PLATE): inactive; negative

O=C1NS(=O)(=O)c2ccccc21
mutagenic call (Test System: AMES SALMONELLA TYPHIMURIUM, Strain/Indicator: TA97A, Metabolic Activation: NONE, Method: PREINCUBATION): inactive; negative
mutagenic call (Test System: AMES SALMONELLA TYPHIMURIUM, Strain/Indicator: TA97A, Metabolic Activation: RAT, LIVER, S-9, AROCLOR 1254, Method: PREINCUBATION): inactive; negative
mutagenic call (Test System: AMES SALMONELLA TYPHIMURIUM, Strain/Indicator: TA102, Metabolic Activation: NONE, Method: PREINCUBATION): inactive; negative
mutagenic call (Test System: AMES SALMONELLA TYPHIMURIUM, Strain/Indicator: TA102, Metabolic Activation: RAT, LIVER, S-9, AROCLOR 1254, Method: PREINCUBATION): inactive; negative

CCN(N)c1ccccc1
mutagenic call [2]: active; positive
mutagenic call [3]: inactive; negative
mutagenic call (Test System: AMES SALMONELLA TYPHIMURIUM, Strain/Indicator: TA102, Metabolic Activation: NONE, Method: STANDARD PLATE): inactive; negative
mutagenic call (Test System: AMES SALMONELLA TYPHIMURIUM, Strain/Indicator: TA102, Metabolic Activation: RAT, LIVER, S-9, AROCLOR 1254, Method: STANDARD PLATE): active; positive

CC(=O)ON(OC(C)C)C(=O)c1ccccc1
mutagenic call [2]: active; positive
mutagenic call (Test System: AMES SALMONELLA TYPHIMURIUM, Strain/Indicator: TA100, Metabolic Activation: RAT, S-9, AROCLOR, Method: STANDARD PLATE): active; positive

CCOc1cccc([N+](=O)[O-])c1
mutagenic call [5]: inactive; negative
mutagenic call (Test System: AMES SALMONELLA TYPHIMURIUM, Strain/Indicator: TA98, Method: PREINCUBATION): inactive; negative
mutagenic call [1]: inactive; negative
mutagenic call (Test System: AMES SALMONELLA TYPHIMURIUM, Strain/Indicator: TA100, Method: PREINCUBATION): inactive; negative
mutagenic call [6]: inactive; negative
mutagenic call (Test System: AMES SALMONELLA TYPHIMURIUM, Strain/Indicator: TA1535, Method: PREINCUBATION): inactive; negative
mutagenic call [7]: inactive; negative
mutagenic call (Test System: AMES SALMONELLA TYPHIMURIUM, Strain/Indicator: TA1537, Method: PREINCUBATION): inactive; negative
mutagenic call (Test System: AMES SALMONELLA TYPHIMURIUM, Strain/Indicator: TA1538, Metabolic Activation: NONE, Method: PREINCUBATION): inactive; negative
mutagenic call (Test System: AMES SALMONELLA TYPHIMURIUM, Strain/Indicator: TA1538, Method: PREINCUBATION): inactive; negative
